Data: PubChem BioAssay (NCI)
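Five compound concentrations were applied to cells in 96-well plates for 48 hours; endpoints were derived by simple linear interpolation of the resulting dose-response curve. TGI: concentration producing complete growth inhibition.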

How the values were obtained:
Test in all cases: NCI anticancer screen, dose series, 48 h
[1] = system: HCT-116 colon
[2] = system: UACC-257 melanoma
[3] = system: MDA-MB-231 breast
[4] = system: LOX IMVI melanoma
[5] = system: OVCAR-3 ovarian
[6] = system: HOP-92 NSCLC
[7] = system: CCRF-CEM leukemia
[8] = system: TK-10 renal
[9] = system: SN12C renal
[10] = system: OVCAR-8 ovarian
[11] = system: U251 CNS
[12] = system: HCC-2998 colon
[13] = system: M14 melanoma
[14] = system: OVCAR-5 ovarian
[15] = system: SF-539 CNS
[16] = system: UO-31 renal
[17] = system: BT-549 breast
[18] = system: COLO 205 colon
[19] = system: SK-MEL-2 melanoma
[20] = system: MCF7 breast
[21] = system: NCI-H23 lung
[22] = system: DU-145 prostate
[23] = system: NCI-H226 lung
[24] = system: 786-0 renal
[25] = system: T-47D breast
[26] = system: A498 renal
[27] = system: HCT-15 colon
[28] = system: MDA-N
[29] = system: HL-60(TB) leukemia
[30] = system: SK-MEL-5 melanoma
[31] = system: KM12 colon
[32] = system: SNB-19 CNS
[33] = system: NCI-H460 lung
[34] = system: CAKI-1 renal
[35] = system: A549 NSCLC
[36] = system: SK-OV-3 ovarian
[37] = system: NCI/ADR-RES ovarian
[38] = system: MOLT-4 leukemia
[39] = system: ACHN renal
[40] = system: SK-MEL-28 melanoma
[41] = system: SF-295 CNS
[42] = system: HT29 colon
[43] = system: SF-268 CNS
[44] = system: OVCAR-4 ovarian
[45] = system: EKVX NSCLC
[46] = system: SW-620 colon
[47] = system: PC-3 prostate
[48] = system: K-562 leukemia
[49] = system: RXF 393 renal
[50] = system: MDA-MB-435
[51] = system: UACC-62 melanoma
[52] = system: MALME-3M melanoma
[53] = system: NCI-H522 lung
[54] = system: HOP-62 NSCLC
[55] = system: HS 578T breast
[56] = system: SNB-75 CNS
[57] = system: SR leukemia
[58] = system: RPMI-8226 leukemia
[59] = system: IGROV1 ovarian

Structure (SMILES): CCOC(=O)c1cc2/c(=C\c3ccc(N(C)C)cc3)c3ccccc3n2[n+]1C
- TGI [1]: 11.1 µM
- TGI [2]: 11.8 µM
- TGI [3]: 18.9 µM
- TGI [4]: 3.78 µM
- TGI [5]: 0.581 µM
- TGI [6]: 14.9 µM
- TGI [7]: > 24.6 µM
- TGI [8]: 21.9 µM
- TGI [9]: 14.4 µM
- TGI [10]: 36.1 µM
- TGI [11]: 11.8 µM
- TGI [12]: 10 µM
- TGI [13]: 15.2 µM
- TGI [14]: 20.4 µM
- TGI [15]: 4.02 µM
- TGI [16]: 19.3 µM
- TGI [17]: 7.11 µM
- TGI [18]: 1.42 µM
- TGI [19]: 4.74 µM
- TGI [20]: 27.9 µM
- TGI [21]: 12.3 µM
- TGI [22]: 17.4 µM
- TGI [23]: 24.6 µM
- TGI [24]: 15 µM
- TGI [25]: 24.6 µM
- TGI [26]: 27.7 µM
- TGI [27]: 31.9 µM
- TGI [28]: 15.3 µM
- TGI [29]: 2.37 µM
- TGI [30]: 4.04 µM
- TGI [31]: 1.4 µM
- TGI [32]: 15.6 µM
- TGI [33]: 12.6 µM
- TGI [34]: 15.3 µM
- TGI [35]: > 40 µM
- TGI [36]: 16.3 µM
- TGI [37]: > 100 µM
- TGI [38]: > 23.4 µM
- TGI [39]: 20.4 µM
- TGI [40]: 14 µM
- TGI [41]: 16.1 µM
- TGI [42]: 12.7 µM
- TGI [43]: 19.7 µM
- TGI [44]: 13.7 µM
- TGI [45]: 21.5 µM
- TGI [46]: 13.1 µM
- TGI [47]: 12.7 µM
- TGI [48]: > 58 µM
- TGI [49]: 4.78 µM
- TGI [50]: 11.5 µM
- TGI [51]: 14.2 µM

Structure (SMILES): CCOC(=O)C1=CCOc2cc(N(C)C)ccc21
- TGI [1]: > 100 µM
- TGI [2]: > 100 µM
- TGI [3]: > 100 µM
- TGI [4]: > 100 µM
- TGI [5]: 55.3 µM
- TGI [7]: 64 µM
- TGI [8]: > 100 µM
- TGI [9]: > 100 µM
- TGI [10]: > 100 µM
- TGI [11]: > 100 µM
- TGI [52]: > 100 µM
- TGI [12]: > 100 µM
- TGI [13]: > 100 µM
- TGI [53]: > 100 µM
- TGI [15]: > 100 µM
- TGI [16]: > 100 µM
- TGI [17]: > 100 µM
- TGI [54]: > 100 µM
- TGI [18]: > 100 µM
- TGI [19]: > 100 µM
- TGI [20]: > 100 µM
- TGI [55]: > 100 µM
- TGI [21]: > 100 µM
- TGI [22]: > 100 µM
- TGI [23]: > 100 µM
- TGI [24]: > 100 µM
- TGI [56]: > 100 µM
- TGI [26]: > 100 µM
- TGI [27]: > 100 µM
- TGI [28]: > 100 µM
- TGI [29]: > 100 µM
- TGI [30]: > 100 µM
- TGI [31]: > 100 µM
- TGI [32]: > 100 µM
- TGI [33]: > 100 µM
- TGI [34]: > 100 µM
- TGI [35]: > 100 µM
- TGI [36]: > 100 µM
- TGI [37]: > 100 µM
- TGI [39]: > 100 µM
- TGI [40]: > 100 µM
- TGI [41]: > 100 µM
- TGI [42]: > 100 µM
- TGI [57]: > 100 µM
- TGI [43]: > 100 µM
- TGI [58]: > 100 µM
- TGI [45]: > 100 µM
- TGI [46]: > 100 µM
- TGI [47]: > 100 µM
- TGI [48]: > 100 µM
- TGI [59]: > 100 µM
- TGI [49]: > 100 µM
- TGI [50]: > 100 µM
- TGI [51]: > 100 µM

Structure (SMILES): CC(=O)NC1(c2cc3ccccc3s2)CCCCCC1
- TGI [1]: > 100 µM
- TGI [2]: > 100 µM
- TGI [3]: > 100 µM
- TGI [4]: > 100 µM
- TGI [5]: 62.8 µM
- TGI [6]: > 100 µM
- TGI [7]: 52.6 µM
- TGI [8]: > 100 µM
- TGI [9]: > 100 µM
- TGI [10]: > 100 µM
- TGI [11]: > 100 µM
- TGI [12]: > 100 µM
- TGI [13]: > 100 µM
- TGI [53]: 39.1 µM
- TGI [14]: > 100 µM
- TGI [15]: > 100 µM
- TGI [16]: > 100 µM
- TGI [17]: > 100 µM
- TGI [54]: > 100 µM
- TGI [18]: 50 µM
- TGI [19]: 53.2 µM
- TGI [20]: > 100 µM
- TGI [21]: > 100 µM
- TGI [22]: > 100 µM
- TGI [23]: > 100 µM
- TGI [24]: > 100 µM
- TGI [56]: 92.2 µM
- TGI [26]: > 100 µM
- TGI [27]: > 100 µM
- TGI [28]: > 100 µM
- TGI [29]: 55.4 µM
- TGI [30]: 66.7 µM
- TGI [31]: > 100 µM
- TGI [32]: > 100 µM
- TGI [33]: > 100 µM
- TGI [34]: > 100 µM
- TGI [35]: > 100 µM
- TGI [36]: > 100 µM
- TGI [37]: > 100 µM
- TGI [38]: 44.4 µM
- TGI [39]: > 100 µM
- TGI [40]: > 100 µM
- TGI [41]: > 100 µM
- TGI [42]: > 100 µM
- TGI [57]: 93.1 µM
- TGI [43]: 40.9 µM
- TGI [44]: > 100 µM
- TGI [45]: 57.3 µM
- TGI [46]: > 100 µM
- TGI [47]: 60.8 µM
- TGI [48]: 97.3 µM
- TGI [59]: > 100 µM
- TGI [49]: 80.6 µM
- TGI [50]: > 100 µM
- TGI [51]: > 100 µM

Structure (SMILES): COc1cc(N(C)C)c(OC)cc1/C=C\c1ccnc2ccccc12
- TGI [1]: > 10 µM
- TGI [2]: > 10 µM
- TGI [3]: > 10 µM
- TGI [4]: > 10 µM
- TGI [5]: > 10 µM
- TGI [6]: 9.42 µM
- TGI [7]: 9.41 µM
- TGI [8]: > 10 µM
- TGI [9]: > 10 µM
- TGI [10]: > 10 µM
- TGI [11]: > 10 µM
- TGI [52]: > 10 µM
- TGI [12]: > 10 µM
- TGI [13]: > 10 µM
- TGI [53]: > 10 µM
- TGI [14]: > 10 µM
- TGI [15]: 6.48 µM
- TGI [16]: > 10 µM
- TGI [17]: > 10 µM
- TGI [54]: > 10 µM
- TGI [18]: > 10 µM
- TGI [19]: 8.03 µM
- TGI [20]: > 10 µM
- TGI [55]: > 10 µM
- TGI [21]: > 10 µM
- TGI [22]: > 10 µM
- TGI [23]: > 10 µM
- TGI [24]: > 10 µM
- TGI [56]: 9.62 µM
- TGI [26]: 9.92 µM
- TGI [27]: > 10 µM
- TGI [28]: 3.97 µM
- TGI [29]: 7.99 µM
- TGI [30]: 3.13 µM
- TGI [31]: > 10 µM
- TGI [32]: > 10 µM
- TGI [33]: > 10 µM
- TGI [34]: > 10 µM
- TGI [35]: > 10 µM
- TGI [36]: > 10 µM
- TGI [37]: 7.66 µM
- TGI [38]: 8.06 µM
- TGI [39]: > 10 µM
- TGI [40]: > 10 µM
- TGI [41]: > 10 µM
- TGI [42]: > 10 µM
- TGI [43]: > 10 µM
- TGI [44]: > 10 µM
- TGI [58]: 7.32 µM
- TGI [45]: > 10 µM
- TGI [46]: > 10 µM
- TGI [47]: > 10 µM
- TGI [48]: > 10 µM
- TGI [59]: > 10 µM
- TGI [49]: > 10 µM
- TGI [50]: 4.26 µM
- TGI [51]: > 10 µM
